Series [1] addresses BCRP (Homo sapiens (Human), UniProt Q9UNQ0). In words: BCRP MDCKII permeability assay: efflux ratio. The note with it: for BCRP efflux ratio: BCRP transfected MDCKII cells, Papp(B−A)/Papp(A−B), test article 1 μM, 2 hours; for efflux ratio at 2 h, 1 µM: dog.
Protocol: (§4) BCRP transfected MDCKII cells were cultured and plated according to manufacturer's recommendations. Assay conditions included with and without the BCRP-specific inhibitor, K0143, at a concentration of 0.3 μM to ascertain the contribution of BCRP to the efflux value of the test compound.
(§5) Both positive and negative controls were used to assess functionality of P-gp or BCRP efflux in the assays. […] Final organic concentration in the assay was 1%. All dosing solutions contained 10 μM lucifer yellow to monitor LLC-PK1 or MDCKII cell monolayer integrity.
(§6) For the apical to basolateral determination (A to B), 75 μL of the test article in transport buffer were added to the apical side of the individual transwells and 250 μL of basolateral media, without compound or lucifer yellow, were added to each well. For the basolateral to apical determination (B to A), 250 μL of test article in transport buffer were added to each well and 75 μL transport buffer, without compound or lucifer yellow, were added to each transwell. All tests were performed in triplicate, and each compound was tested for both apical to basolateral and basolateral to apical transport. The plates were incubated for 2 hours on a Lab-Line Instruments Titer Orbital Shaker (VWR, West Chester, Pa.) at 50 rpm and 37° C. with 5% CO2. All culture plates were removed from the incubator and 50 μL of media were removed from the apical and basolateral portion of each well and added to 150 μL of 1 μM labetalol in 2:1 acetonitrile (acetonitrile): H2O, v/v.
(§7) These values were accepted when found to be below 2% for apical to basolateral and 5% basolateral to apical flux across the MDR1-transfected LLC-PK1 or BCRP-transfected MDCKII cell monolayers. The plates were sealed and the contents of each well analyzed by LC-MS/MS. The compound concentrations were determined from the ratio of the peak areas of the compound to the internal standard (labetalol) in comparison to the dosing solution.
(§8) The LC-MS/MS system was comprised of an HTS-PAL autosampler (Leap Technologies, Carrboro, N.C.), an HP1200 HPLC (Agilent, Palo Alto, Calif.), and a MDS Sciex 4000 Q Trap system (Applied Biosystems, Foster City, Calif.). […] The total run time, including re-equilibration, for a single injection was 1.2 minutes. Mass spectrometric detection of the analytes was accomplished using the ion spray positive mode.
(§9) An efflux ratio is calculated from the mean apical to basolateral (A−B) Papp data and basolateral to apical (B−A) Papp data: Efflux ratio=Papp(B−A)/Papp(A−B)
For series [2], the system named is LLC-PK1 or MDCKII cell monolayer. Kind of series: MDR1 LLC-PK1 and BCRP MDCKII permeability assay: permeability coefficient (Papp). The note with it: permeability coefficient Papp; test article 1 μM; 2 hours, 37° C.
Protocol: (§10) Both LLC-PK1 and MDR1 transfected LLC-PK1 cells were cultured and plated according to manufacturer's recommendations with the exception that the passage media contained only 2% fetal bovine serum to extend passage time out to seven days.
as §4, §5, §6, §7, §8
(§11) where Cd, V, t and C0 are the detected concentration (μM), the volume on the dosing side (mL); the incubation time (s) and the initial dosing concentration (μM), respectively. The calculations for Papp were made for each replicate and then averaged.
Series [3] concerns the target P-gp (MDR1) (Homo sapiens (Human), UniProt P08183). Kind of series: MDR1 LLC-PK1 permeability assay: efflux ratio. The note with it: for MDR1 efflux ratio: MDR1 transfected LLC-PK1 cells, Papp(B−A)/Papp(A−B), test article 1 μM, 2 hours; for efflux ratio at 2 h, 1 µM: pig, LLC-PK1.
Protocol: as §10, §5, §6, §7, §8, §9
For series [4], the target named is full-length FLAG-tagged B-Raf(V600E) (Homo sapiens (Human), UniProt P15056, V600E). Kind of series: BRAF V600E enzyme assay (TR-FRET competitive displacement of fluorescent tracer). It is filed as binding. The note with it: averaged IC50; 60 min at ambient temperature; 11-point dosing, top dose 10 μM. An excerpt: (§1) A competitive displacement assay was configured for B-Raf that monitors the amount of a fluorescently-tagged “tracer” bound to B-Raf via TR-FRET from an anti-tag Eu-labeled antibody also bound to B-Raf.
Sequence of full-length FLAG-tagged B-Raf(V600E) (P15056 whole entry V600E): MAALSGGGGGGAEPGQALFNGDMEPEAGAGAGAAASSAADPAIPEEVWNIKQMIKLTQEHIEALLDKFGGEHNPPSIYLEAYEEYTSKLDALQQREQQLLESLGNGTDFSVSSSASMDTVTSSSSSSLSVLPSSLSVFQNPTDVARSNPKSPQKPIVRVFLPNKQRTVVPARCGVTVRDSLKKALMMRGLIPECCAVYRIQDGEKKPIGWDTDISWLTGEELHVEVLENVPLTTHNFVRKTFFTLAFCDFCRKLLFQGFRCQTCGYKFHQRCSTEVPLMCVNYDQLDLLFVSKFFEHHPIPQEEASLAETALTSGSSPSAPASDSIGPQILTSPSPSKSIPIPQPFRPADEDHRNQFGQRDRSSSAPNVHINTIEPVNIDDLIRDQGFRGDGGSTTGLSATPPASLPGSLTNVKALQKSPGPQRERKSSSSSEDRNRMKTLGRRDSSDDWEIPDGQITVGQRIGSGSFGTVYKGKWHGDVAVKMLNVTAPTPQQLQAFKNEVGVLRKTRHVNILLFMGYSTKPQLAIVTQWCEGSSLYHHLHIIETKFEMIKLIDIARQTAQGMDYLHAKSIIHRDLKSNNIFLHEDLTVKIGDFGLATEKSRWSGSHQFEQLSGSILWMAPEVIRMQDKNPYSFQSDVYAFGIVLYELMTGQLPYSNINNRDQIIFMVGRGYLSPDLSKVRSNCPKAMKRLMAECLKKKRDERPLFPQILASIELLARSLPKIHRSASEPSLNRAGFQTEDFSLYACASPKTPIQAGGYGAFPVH
(§2) [formula] • where: • Xmax Average Uninhibited Controls • Xmin Average Background
(§3) A 4-parameter logistic model was the fit to the POC data for each compound.
In general terms: In TR-FRET formats the signal depends on donor and acceptor labels being close together.

Series [5] can be described thus: MDR1 LLC-PK1 and BCRP MDCKII permeability assay: permeability coefficient (Papp).
Protocol: as §10, §4, §5, §6, §7, §8, §11
The target of series [6] is N-terminally GST-tagged B-Raf(V600K) (Homo sapiens, UniProt P15056, V600K). In words: BRAF V600K enzyme assay (TR-FRET competitive displacement of fluorescent tracer). The series is classed as binding. The note with it: averaged IC50; 60 min at ambient temperature; 11-point dosing, top dose 10 μM.
Sequence of N-terminally GST-tagged B-Raf(V600K) (P15056 2-766 V600K limits assumed): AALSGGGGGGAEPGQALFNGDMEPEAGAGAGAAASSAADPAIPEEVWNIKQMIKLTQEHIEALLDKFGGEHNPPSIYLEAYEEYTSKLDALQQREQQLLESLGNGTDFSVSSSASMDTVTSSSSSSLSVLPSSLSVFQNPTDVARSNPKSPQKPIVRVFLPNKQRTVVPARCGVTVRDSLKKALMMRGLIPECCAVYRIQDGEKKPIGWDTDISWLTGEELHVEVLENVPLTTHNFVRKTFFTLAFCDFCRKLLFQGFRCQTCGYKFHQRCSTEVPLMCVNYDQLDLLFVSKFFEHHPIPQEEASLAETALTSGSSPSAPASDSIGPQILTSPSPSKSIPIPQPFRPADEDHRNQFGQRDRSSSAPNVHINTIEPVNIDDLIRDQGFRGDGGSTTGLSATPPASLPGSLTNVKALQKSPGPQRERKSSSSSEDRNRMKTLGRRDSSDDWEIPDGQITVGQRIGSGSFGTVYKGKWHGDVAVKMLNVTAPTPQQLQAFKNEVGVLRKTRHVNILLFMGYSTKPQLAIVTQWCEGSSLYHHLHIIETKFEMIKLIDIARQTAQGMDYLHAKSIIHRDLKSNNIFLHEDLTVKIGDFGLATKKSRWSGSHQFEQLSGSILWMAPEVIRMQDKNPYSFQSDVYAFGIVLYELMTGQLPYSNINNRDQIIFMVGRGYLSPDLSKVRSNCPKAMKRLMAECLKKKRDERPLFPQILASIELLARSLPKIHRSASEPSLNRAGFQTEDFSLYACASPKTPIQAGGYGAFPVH
Text: as §1, §2, §3

Series [7] is described as follows: PK (free brain-to-free plasma ratio) (mouse). The series is classed as in vivo. The note with it: mouse; unbound brain-to-unbound plasma concentration ratio; male CD-1 mice; oral gavage 10 mg/kg; sampling 2-24 hours; read-out: B/P ratio (free). Here is the method:
PK (Free Brain-to-Free Plasma Ratio) (Mouse)
The ability of representative compounds to penetrate the BBB in mice was determined by evaluating the unbound brain-to-unbound plasma (also referred to as free brain-to-free plasma) concentration ratio in male CD-1 mice.
Brain samples were stored at −20±5° C. prior to analysis. Concentrations of test compound in mouse brain homogenate were determined by liquid chromatography tandem mass spectrometry (LC-MS/MS) following protein precipitation with acetonitrile. A 12-point calibration curve, ranging from 0.5 to 10,000 ng/mL, was prepared in duplicate. A solution of 400 μg/mL of test compound in dimethyl sulfoxide (DMSO) was serially diluted (3-fold) in 100% DMSO, and then 2.5 μL of each standard solution was added to 100 μL of naïve male CD-1 mice brain homogenate. To mimic the extraction in the standard curve, 2.5 μL of DMSO was added to all test samples. Both calibration and test brain homogenate samples were spiked with 10 μL of an IS (1 μg/mL of a structural analog). Brain homogenate was generated by adding 0.75 mL of 4:1 water:MeOH to each brain sample followed by homogenization for 1 minute with bead beater tubes a 6 m/s using an MP Fast Prep-24®. Proteins were precipitated from 100 μL of brain homogenate sample by the addition of 300 μL of acetonitrile. […] A 100 μL aliquot of each supernatant was transferred via a 550 μL Personal Pipettor (Apricot Designs, Monrovia, Calif.) to 96-well plates and diluted 1:1 with HPLC grade water. The resulting plates were sealed with aluminum for LC-MS/MS analysis.
Brain-to-plasma ratios were calculated using the concentration of compound measured in the brain divided by the concentration of compound measured in the plasma. Brain-to-plasma ratios were always generated from a single animal and time point. Free brain-to-free plasma ratios were calculated by multiplying the brain-to-plasma ratio by the in vitro brain homogenate free fraction divided by the in vitro plasma free fraction using the following equation: (B/P)*(Bfu/Pfu).

As a reminder, the IC50 is the midpoint of a concentration-inhibition curve. Read a high IC50 as lower potency. What is called efflux ratio is the permeability from basolateral to apical divided by that in the opposite direction, in the common usage. What is called Papp is the rate of passage across a membrane or cell layer, normalised by area and donor concentration.

Sequence of BCRP (Q9UNQ0 whole entry, species assumed): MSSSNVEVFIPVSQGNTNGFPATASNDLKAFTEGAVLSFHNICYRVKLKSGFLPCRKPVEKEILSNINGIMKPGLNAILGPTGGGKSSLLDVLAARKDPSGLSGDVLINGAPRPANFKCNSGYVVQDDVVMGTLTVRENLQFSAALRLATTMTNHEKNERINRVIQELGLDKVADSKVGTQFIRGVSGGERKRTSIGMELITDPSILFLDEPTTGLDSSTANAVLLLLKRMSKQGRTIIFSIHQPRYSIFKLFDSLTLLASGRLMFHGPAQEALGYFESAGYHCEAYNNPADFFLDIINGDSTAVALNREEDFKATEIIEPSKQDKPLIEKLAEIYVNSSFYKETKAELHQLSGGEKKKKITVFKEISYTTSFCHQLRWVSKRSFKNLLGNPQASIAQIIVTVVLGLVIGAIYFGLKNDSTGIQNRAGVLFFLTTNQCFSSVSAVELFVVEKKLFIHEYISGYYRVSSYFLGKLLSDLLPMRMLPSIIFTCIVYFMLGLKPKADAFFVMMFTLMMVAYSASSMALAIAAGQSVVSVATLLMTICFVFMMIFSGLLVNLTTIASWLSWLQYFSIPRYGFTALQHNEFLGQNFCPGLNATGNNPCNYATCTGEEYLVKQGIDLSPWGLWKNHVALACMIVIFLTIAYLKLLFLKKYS
Sequence of P-gp (MDR1) (P08183 whole entry, species assumed): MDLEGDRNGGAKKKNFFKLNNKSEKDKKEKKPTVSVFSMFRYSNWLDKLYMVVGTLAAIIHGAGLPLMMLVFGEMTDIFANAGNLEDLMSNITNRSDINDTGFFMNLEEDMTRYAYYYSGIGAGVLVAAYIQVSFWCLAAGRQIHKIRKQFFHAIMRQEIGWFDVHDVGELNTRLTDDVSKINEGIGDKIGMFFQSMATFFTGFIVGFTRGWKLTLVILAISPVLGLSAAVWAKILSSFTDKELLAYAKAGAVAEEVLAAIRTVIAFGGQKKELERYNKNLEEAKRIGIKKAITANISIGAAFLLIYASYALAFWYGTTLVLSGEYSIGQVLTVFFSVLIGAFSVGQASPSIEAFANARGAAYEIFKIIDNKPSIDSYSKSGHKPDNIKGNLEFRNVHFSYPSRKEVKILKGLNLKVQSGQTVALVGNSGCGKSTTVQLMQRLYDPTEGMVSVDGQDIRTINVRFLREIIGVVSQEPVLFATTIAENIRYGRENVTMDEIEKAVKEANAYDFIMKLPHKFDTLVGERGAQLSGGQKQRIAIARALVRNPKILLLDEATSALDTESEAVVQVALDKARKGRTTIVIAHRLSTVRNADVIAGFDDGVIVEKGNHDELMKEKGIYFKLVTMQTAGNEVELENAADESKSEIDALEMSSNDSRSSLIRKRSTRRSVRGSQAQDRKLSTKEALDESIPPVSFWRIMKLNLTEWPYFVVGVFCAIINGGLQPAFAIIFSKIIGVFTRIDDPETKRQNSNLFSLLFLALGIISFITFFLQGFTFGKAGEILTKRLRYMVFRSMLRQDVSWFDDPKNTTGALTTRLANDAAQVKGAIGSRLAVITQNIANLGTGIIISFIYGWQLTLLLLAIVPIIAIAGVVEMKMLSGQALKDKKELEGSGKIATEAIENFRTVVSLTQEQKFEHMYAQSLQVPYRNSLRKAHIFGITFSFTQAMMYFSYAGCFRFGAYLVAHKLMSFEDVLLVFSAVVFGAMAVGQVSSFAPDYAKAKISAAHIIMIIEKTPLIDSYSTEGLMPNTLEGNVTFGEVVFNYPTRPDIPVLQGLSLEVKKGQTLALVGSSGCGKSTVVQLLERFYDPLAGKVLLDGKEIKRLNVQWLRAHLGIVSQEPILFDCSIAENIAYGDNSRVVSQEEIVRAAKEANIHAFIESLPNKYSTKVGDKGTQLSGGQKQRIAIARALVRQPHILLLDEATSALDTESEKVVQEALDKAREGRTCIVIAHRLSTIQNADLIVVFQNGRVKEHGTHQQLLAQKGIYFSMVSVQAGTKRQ

“1-cyclopropyl-N-(4-((3,5-dimethyl-4-oxo-3,4-dihydroquinazolin-6-yl)amino)-3,5-difluoropyridin-2-yl)methanesulfonamide [Example 42]”: the BCRP efflux ratio in series [1] is recorded as 23.73. For the same molecule, the Permeability in series [2] is given as 18.35 *10^−6 cm/s. In addition, in series [3], the MDR1 efflux ratio is recorded as 5.26. In addition, the IC50 in series [4] amounted to 60.3 nM.

`CCCS(=O)(=O)Nc1ccc(F)c(Nc2ccc3ncn(C)c(=O)c3c2C)c1F` [Example 1, N-(3-((3,5-dimethyl-4-oxo-3,4-dihydroquinazolin-6-yl)amino)-2,4-difluorophenyl)propane-1-sulfonamide]: the efflux ratio at 2 h, 1 µM came out at 3.4 in series [1] and 1.68 in series [3]. In series [5], this molecule came in with a Papp at 2 h, 1 µM of 34.9 ×10⁻⁶ cm/s. For the same molecule, the IC50 worked out at 8.5 nM in series [6] and 42.7 nM in series [4]. Further, the Kp,uu (unbound brain/unbound plasma ratio) in series [7] lay within 0.3 to 0.62.

Turning to `Cc1c(Nc2cccc(NS(=O)(=O)CCCF)c2Cl)ccc2ncn(C)c(=O)c12` [Example 4], the values for the efflux ratio at 2 h, 1 µM in series [1] and in series [3] were 1.85 and 1.14, respectively. The molecule further registered a Papp at 2 h, 1 µM in series [5] of 34.5 ×10⁻⁶ cm/s. Also, the IC50 stood at 8.1 nM in series [6] and 16.1 nM in series [4]. The Kp,uu (unbound brain/unbound plasma ratio) in series [7] is 0.35 to 1.6.

For `CCCS(=O)(=O)Nc1cc(F)c(F)c(Nc2ccc3ncn(C)c(=O)c3c2C)c1Cl` [Example 7, N-(2-chloro-3-((3,5-dimethyl-4-oxo-3,4-dihydroquinazolin-6-yl)amino)-4,5-difluorophenyl)propane-1-sulfonamide], the efflux ratio at 2 h, 1 µM in series [1] turned out to be 1.64; in series [3] it was 1.3. The Papp at 2 h, 1 µM in series [5] came to 26.3 ×10⁻⁶ cm/s. Besides, the figures for the IC50 in series [6] and in series [4] were 2.2 nM and 1.3 nM, respectively. Further, the Kp,uu (unbound brain/unbound plasma ratio) in series [7] was in the range of 0.87 to 1.19.

As to `CCCS(=O)(=O)Nc1ccc(F)c(Nc2ccc3ncn(C)c(=O)c3c2C)c1Cl` [Example 9, N-(2-chloro-3-((3,5-dimethyl-4-oxo-3,4-dihydroquinazolin-6-yl)amino)-4-fluorophenyl)propane-1-sulfonamide], the efflux ratio at 2 h, 1 µM came out at 1.23 in series [1] and 1.26 in series [3]. The same molecule gave a Papp at 2 h, 1 µM in series [5] of 27.8 ×10⁻⁶ cm/s. Besides, the IC50 is 6.5 nM in series [6] and 19.7 nM in series [4]. For the same molecule, the Kp,uu (unbound brain/unbound plasma ratio) in series [7] fell in the range of 0.76 to 1.04.

Regarding `Cc1c(Oc2c(F)ccc(NS(=O)(=O)CCCF)c2Cl)ccc2ncn(C)c(=O)c12` [Example 67, N-{2-chloro-3-[(3,5-dimethyl-4-oxo-3,4-dihydroquinazolin-6-yl)oxy]-4-fluorophenyl}-3-fluoropropane-1-sulfonamide], the efflux ratio at 2 h, 1 µM in series [1] and in series [3] was 1.8 in each case. Further, in series [5], the Papp at 2 h, 1 µM amounted to 27.6 ×10⁻⁶ cm/s. In addition, the IC50 in series [6] worked out at 2.8 nM; in series [4], 2 nM. The Kp,uu (unbound brain/unbound plasma ratio) in series [7] is 0.4 to 0.49.

On to `CCCS(=O)(=O)Nc1cc(F)c(F)c(Oc2ccc3ncn(C)c(=O)c3c2C)c1Cl` [Example 73, N-(2-chloro-3-((3,5-dimethyl-4-oxo-3,4-dihydroquinazolin-6-yl)oxy)-4,5-difluorophenyl)propane-1-sulfonamide], for which the efflux ratio at 2 h, 1 µM in series [1] was 0.3; in series [3], 0.93. The Papp at 2 h, 1 µM in series [5] was determined as 47.5 ×10⁻⁶ cm/s. For the same molecule, the IC50 in series [4] stood at 1.55 nM.

Consider `CCCS(=O)(=O)Nc1cc(F)cc(Oc2ccc3ncn(C)c(=O)c3c2C)c1Cl` [Example 74, N-(2-chloro-3-((3,5-dimethyl-4-oxo-3,4-dihydroquinazolin-6-yl)oxy)-5-fluorophenyl)propane-1-sulfonamide], for which the efflux ratio at 2 h, 1 µM was 0.92 in series [1] and 1.13 in series [3]. For the same molecule, the Papp at 2 h, 1 µM in series [5] amounted to 28.4 ×10⁻⁶ cm/s. The molecule also came in with a 50% inhibitory concentration (IC50) in series [4] of 3.55 nM.

With `CCCS(=O)(=O)Nc1cc(C)cc(Oc2ccc3ncn(C)c(=O)c3c2C)c1F` [Example 75, N-(3-((3,5-dimethyl-4-oxo-3,4-dihydroquinazolin-6-yl)oxy)-2-fluoro-5-methylphenyl)propane-1-sulfonamide], the efflux ratio at 2 h, 1 µM was determined as 0.73 in series [1] and 1.57 in series [3]. Further, in series [5], the Papp at 2 h, 1 µM turned out to be 21.5 ×10⁻⁶ cm/s. The same molecule came in with an IC50 in series [4] of 74.8 nM.

Take `CCCS(=O)(=O)Nc1cc(F)cc(Oc2ccc3ncn(C)c(=O)c3c2C)c1F` [Example 76, N-(3-((3,5-dimethyl-4-oxo-3,4-dihydroquinazolin-6-yl)oxy)-2,5-difluorophenyl)propane-1-sulfonamide]: the efflux ratio at 2 h, 1 µM in series [1] is 1.26; in series [3], 1.45. For the same molecule, the Papp at 2 h, 1 µM in series [5] was found to be 31.8 ×10⁻⁶ cm/s. The IC50 in series [4] is 5.1 nM.

For the molecule `Cc1c(Oc2cc(F)cc(NS(=O)(=O)CCCF)c2F)ccc2ncn(C)c(=O)c12` [Example 77, N-(3-((3,5-dimethyl-4-oxo-3,4-dihydroquinazolin-6-yl)oxy)-2,5-difluorophenyl)-3-fluoropropane-1-sulfonamide], the efflux ratio at 2 h, 1 µM in series [1] was 4.24; in series [3], 1.91. For the same molecule, in series [5], the Papp at 2 h, 1 µM was found to be 25.6 ×10⁻⁶ cm/s. This molecule also showed an IC50 in series [4] of 4.25 nM.

As for `CCCS(=O)(=O)Nc1cccc(Oc2ccc3ncn(C)c(=O)c3c2C)c1Cl` [Example 78, N-(2-chloro-3-((3,5-dimethyl-4-oxo-3,4-dihydroquinazolin-6-yl)oxy)phenyl)propane-1-sulfonamide], the efflux ratio at 2 h, 1 µM in series [1] stood at 0.96; in series [3], 1.16. This molecule also showed a Papp at 2 h, 1 µM in series [5] of 29 ×10⁻⁶ cm/s. Also, the IC50 in series [4] came out at 10.8 nM.

`Cc1c(Oc2cccc(NS(=O)(=O)CCCF)c2Cl)ccc2ncn(C)c(=O)c12` [Example 79, N-(2-chloro-3-((3,5-dimethyl-4-oxo-3,4-dihydroquinazolin-6-yl)oxy)phenyl)-3-fluoropropane-1-sulfonamide]: the efflux ratio at 2 h, 1 µM in series [1] is 1.06; in series [3] it was 2.14. Also, the Papp at 2 h, 1 µM in series [5] is 23.1 ×10⁻⁶ cm/s. The IC50 in series [4] was 8.55 nM.

Take `Cc1c(Oc2cccc(NS(=O)(=O)CCCF)c2F)ccc2ncn(C)c(=O)c12` [Example 80, N-(3-((3,5-dimethyl-4-oxo-3,4-dihydroquinazolin-6-yl)oxy)-2-fluorophenyl)-3-fluoropropane-1-sulfonamide]: the values for the efflux ratio at 2 h, 1 µM in series [1] and in series [3] were 2.03 and 1.3, respectively. The Papp at 2 h, 1 µM in series [5] came to 42.5 ×10⁻⁶ cm/s. In addition, the IC50 in series [4] is 20.8 nM.

On to `Cn1cnc2ccc(Nc3c(F)ccc(NS(=O)(=O)CCCF)c3Cl)c(Cl)c2c1=O` [WO 2012/118492 Ex. 37, reference compound], for which the efflux ratio at 2 h, 1 µM came out at 8.6 in series [1] and 1.9 in series [3]. Further, the Kp,uu (unbound brain/unbound plasma ratio) in series [7] is 0.12 to 0.15.

For the molecule `Cn1cnc2ccc(Nc3c(F)ccc(NS(=O)(=O)CCCF)c3Cl)cc2c1=O` [WO 2012/118492 Example 34, reference compound], the efflux ratio at 2 h, 1 µM in series [1] came out at 7.68; in series [3] it was 8.89. Also, the Kp,uu (unbound brain/unbound plasma ratio) in series [7] is 0.08 to 0.14.

As to “N-(2-chloro-3-((3,5-dimethyl-4-oxo-3,4-dihydroquinazolin-6-yl)amino)-4-fluorophenyl)-1-cyclopropylmethanesulfonamide [Example 50]”, the BCRP efflux ratio in series [1] was 1.13. The Permeability in series [2] is 21.88 *10^−6 cm/s. Also, in series [3], the MDR1 efflux ratio is listed as 1.54. Moreover, in series [4], the IC50 was determined as 66.1 nM.

For the molecule “N-(2-chloro-3-((3,5-dimethyl-4-oxo-3,4-dihydroquinazolin-6-yl)amino)-4-fluorophenyl)-2-methylpropane-1-sulfonamide [Example 51]”, the BCRP efflux ratio in series [1] is 1.28. Further, in series [2], the Permeability was 27.16 *10^−6 cm/s. For the same molecule, the MDR1 efflux ratio in series [3] was found to be 1.64. Further, the IC50 in series [4] worked out at 63.4 nM.

For the origin of these results see patent US11414404B2, “Compounds for the treatment of BRAF-associated diseases and disorders” (Array BioPharma Inc., priority 2019, dated 2022).
